The compounds below were run against T1, renin (Homo sapiens, UniProt P00797) (assay: Formation of angiotensin I in human plasma (in vitro test of Nussberger et al.), radio-immunoassay). Conditions: one range stated for the listed examples together, about, read-out: IC50, concentration of the inhibitor which reduces the formation of angiotensin I by 50%.
T1 construct: This test measures the formation of angiotensin I in human plasma; from tissue; host or cells: human plasma
T1 sequence (P00797 67-406): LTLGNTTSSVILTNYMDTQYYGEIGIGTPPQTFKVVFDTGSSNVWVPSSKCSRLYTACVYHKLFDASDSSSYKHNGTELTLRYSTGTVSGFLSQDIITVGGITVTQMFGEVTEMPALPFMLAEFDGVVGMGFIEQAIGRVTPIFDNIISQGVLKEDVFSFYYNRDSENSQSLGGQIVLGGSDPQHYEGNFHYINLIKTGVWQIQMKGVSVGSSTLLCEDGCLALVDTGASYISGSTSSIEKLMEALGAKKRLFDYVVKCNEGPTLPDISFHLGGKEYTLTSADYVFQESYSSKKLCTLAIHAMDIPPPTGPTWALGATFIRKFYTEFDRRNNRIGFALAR
Format: biochemical
From the text: The compounds of the formula (I) or (IA), and their pharmaceutically acceptable salts have an inhibitory effect on the natural enzyme renin. The latter passes from the kidneys into the blood and there brings about the cleavage of angiotensinogen to form the decapeptide angiotensin I which is then cleaved in the lung, the kidneys and other organs to the octa-peptide angiotensin II. Angiotensin II raises the blood pressure both directly by arterial constriction, and indirectly by releasing the hormone aldosterone, which retains sodium ions, from the adrenals, which is associated with an increase in the extracellular fluid volume. This increase is attributable to the effect of angiotensin II itself or of the heptapeptide angiotensin III formed therefrom as cleavage product. Inhibitors of the enzymatic activity of renin bring about a reduction in the formation of angiotensin I and, as a consequence thereof, the formation of a smaller amount of angiotensin II. The reduced concentration of this active peptide hormone is the direct cause of the blood pressure-lowering effect of renin inhibitors.
The effect of renin inhibitors is detected inter alia experimentally by means of in vitro tests where the reduction in the formation of angiotensin I is measured in various systems (human plasma, purified human renin together with synthetic or natural renin substrate). The following in vitro test of Nussberger et al. (1987) J. Cardiovascular Pharmacol., Vol. 9, pp. 39-44, is used inter alia. This test measures the formation of angiotensin I in human plasma. The amount of angiotensin I formed is determined in a subsequent radio-immunoassay. The effect of inhibitors on the formation of angiotensin I is tested in this system by adding various concentrations of these substances. The IC50 is defined as the concentration of the particular inhibitor which reduces the formation of angiotensin I by 50%. The compounds of the present invention show inhibitory effects in the in vitro systems at minimal concentrations of about 10^−6 to about 10^−10 mol/l.

SMILES	IC50 [nM]
COCCCN1CCOc2ccc(CO[C@H]3CNC[C@@H](OCCN4[C@H](C)COC[C@@H]4C)[C@@H]3c3ccc(OC)cc3)cc21 [Example 68, 6-[(3R,4R,5S)-5-[2-((3R,5S)-3,5-Dimethylmorpholin-4-yl)ethoxy]-4-(4-methoxy-phenyl)piperidin-3-yloxymethyl]-4-(3-methoxypropyl)-3,4-dihydro-2H-benzo[1,4]oxazine]	3.8 to 814
COCCCN1CCOc2ccc(CO[C@H]3CNC[C@@H](CNC(C)C)[C@@H]3c3ccc(OC)cc3)cc21 [Example 87, Isopropyl-{(3S,4R,5R)-4-(4-methoxyphenyl)-5-[4-(3-methoxypropyl)-3,4-dihydro-2H-benzo[1,4]oxazin-6-ylmethoxy]piperidin-3-ylmethyl}amine]	3.8 to 814
COCCCN1CCOc2ccc(CO[C@H]3CNC[C@@H](OC[C@H](O)COC)[C@@H]3c3ccc(C#N)cc3)cc21 [Example 73, 4-{(3S,4R,5R)-3((R)-2-Hydroxy-3-methoxypropoxy)-5-[4-(3-methoxypropyl)-3,4-dihydro-2H-benzo[1,4]oxazin-6-ylmethoxy]piperidin-4-yl}benzonitrile]	3.8 to 814
COCCCN1CCOc2ccc(CO[C@H]3CNC[C@@H](OCC#N)[C@@H]3c3ccc(OC)cc3)cc21 [Example 1, {(3S,4R,5R)-4-(4-Methoxyphenyl)-5-[4-(3-methoxypropyl)-3,4-dihydro-2H-benzo[1,4]oxazin-6-ylmethoxy]piperidin-3-yloxyl}acetonitrile]	3.8 to 814
COCCCN1CCOc2ccc(CO[C@H]3CNC[C@@H](OCC(=O)N4[C@H](C)COC[C@@H]4C)[C@@H]3c3ccc(OC)cc3)cc21 [Example 61, 1-((3S,5R)-3,5-Dimethylmorpholin-4-yl)-2-{(3S,4R,5R)-4-(4-methoxyphenyl)-5-[4-(3-methoxypropyl)-3,4-dihydro-2H-benzo[1,4]oxazin-6-ylmethoxy]piperidin-3-yloxy}-ethanone]	3.8 to 814
COCCCN1CCOc2ccc(CO[C@H]3CNC[C@@H](CNC(C)=O)[C@@H]3c3ccc(OC)cc3)cc21 [Example 91, N-{(3S,4R,5R)-4-(4-Methoxyphenyl)-5-[4-(3-methoxypropyl)-3,4-dihydro-2H-benzo[1,4]oxazin-6-ylmethoxy]piperidin-3-ylmethyl}acetamide]	3.8 to 814
COCCCSc1ccc([C@@H]2[C@@H](OCc3ccc4c(c3)N(CCCOC)CCO4)CNC[C@H]2OC[C@H](O)COC)cc1 [Example 71, (R)-1-Methoxy-3-{(3S,4R,5R)-5-[4-(3-methoxypropyl)-3,4-dihydro-2H-benzo[1,4]oxazin-6-ylmethoxy]-4-[4-(3-methoxypropylsulfanyl)phenyl]piperidin-3-yloxy}propan-2-ol]	3.8 to 814

Continued, values first:

IC50 [nM]	SMILES
3.8 to 814	COCCCN1CCOc2ccc(CO[C@H]3CNC[C@@H](OCC(C)(C)OC)[C@@H]3c3ccc(OC)cc3)cc21 [Example 8, 6-[(3R,4R,5S)-5-(2-Methoxy-2-methylpropoxy)-4-(4-methoxyphenyl)piperidin-3-yloxymethyl]-4-(3-methoxypropyl)-3,4-dihydro-2H-benzo[1,4]oxazine]
3.8 to 814	COCCCN1CCOc2ccc(CO[C@H]3CNC[C@@H](OC[C@H](O)COC)[C@@H]3c3ccc(OC)cc3)cc21 [Example 2, (R)-1-Methoxy-3-{(3S,4R,5R)-4-(4-methoxyphenyl)-5-[4-(3-methoxypropyl)-3,4-dihydro-2H-benzo[1,4]oxazin-6-ylmethoxy]piperidin-3-yloxy}propan-2-ol]
3.8 to 814	COCCCN1CCOc2ccc(CO[C@H]3CNC[C@@H](OC[C@H](O)COC)[C@@H]3c3ccc(SCCOC)cc3)cc21 [Example 70, (R)-1-Methoxy-3-{(3S,4R,5R)-4-[4-(2-methoxyethylsulfanyl)phenyl]-5-[4-(3-methoxy-propyl)-3,4-dihydro-2H-benzo[1,4]oxazin-6-ylmethoxy]piperidin-3-yloxy}propan-2-ol]
3.8 to 814	COCCCN1CCOc2ccc(CO[C@H]3CNC[C@@H](OC[C@@H](O)COC)[C@@H]3c3ccc(C#N)cc3)cc21 [Example 74, 4-{(3S,4R,5R)-3((S)-2-Hydroxy-3-methoxypropoxy)-5-[4-(3-methoxypropyl)-3,4-dihydro-2H-benzo[1,4]oxazin-6-ylmethoxy]piperidin-4-yl}-benzonitrile]
3.8 to 814	C#CCO[C@@H]1CNC[C@H](OCc2ccc3c(c2)N(CCCOC)CCO3)C1c1ccc(OC)cc1 (stereo in doubt) [Example 5, 6-[(3R,4R,5S)-4-(4-Methoxyphenyl)-5-prop-2-ynyloxypiperidin-3-yloxymethyl]-4-(3-methoxy-propyl)-3,4-dihydro-2H-benzo[1,4]oxazine]

— patent US20090029981A1, “SUBSTITUTED 4-PHENYLPIPERIDINES” (priority 2006, published 2009)
